Drawing on patent publication EP0023093A1, “Penicillanic acid derivatives, their preparation and their pharmaceutical compositions with a penicillin or cephalosporin” (BEECHAM GROUP PLC, priority 1979, dated 1981), this text covers MIC for 4 compounds.

What all share (assay type): cell-based
For one assay, the system named is Proteus C889. The assay can be described thus: standard MIC test, compound alone and in combination with ampicillin.
The test system of a further assay is Staph Russell. The assay is described as above.
The subject of assay [1] is 7 cephalosporinase - producing E. coli strains. The assay can be described thus: standard MIC test, cephaloridine with synergist. The settings on record: Escherichia coli, read-out: Geometric Mean (MIC). An excerpt:
A composition of sodium 6β-methanesulphonyloxypenicillanate and cephaloridine against 7 cephalosporinase - producing E. coli strains results in the following MIC's in a standard test.

The mark [2] stands for this setting: substance alone (the 1st table).
The mark [3] stands for this setting: substance alone (the 2nd table).

A word on the MIC: it is the lowest concentration found to suppress growth.

For `CC1(C)S[C@@H]2[C@H](NC(=O)[C@H](N)c3ccccc3)C(=O)N2[C@H]1C(=O)O` [Ampicillin], the minimum inhibitory concentration (MIC) with Proteus C889 (setting [2]) was 1000 µg/mL; with Proteus C889 (setting [3]), more than 2000 µg/mL; in the assay with Staph Russell (setting [2]), 62.5 µg/mL; in the assay with Staph Russell (setting [3]) it was 250 µg/mL.
Take `CC1(C)S[C@@H]2[C@H](OS(=O)(=O)c3ccc(Br)cc3)C(=O)N2[C@H]1C(=O)O` [Calcium 6β-p-bromobenzenzsulphonyloxypenicillanate]: the MIC with Proteus C889 (setting [3]) was more than 500 µg/mL; in the assay on Staph Russell (setting [3]) it was 16 µg/mL.
With `O=C(Cc1cccs1)N[C@@H]1C(=O)N2C(C(=O)[O-])=C(C[n+]3ccccc3)CS[C@H]12` [Cephaloridine], the MIC in assay [1] was 152 µg/mL.
In the case of `CC1(C)S[C@@H]2[C@H](OS(C)(=O)=O)C(=O)N2[C@H]1C(=O)O` [Sodium 6β-methanesulphonyloxypenicillanate], the MIC is 62.5 µg/mL in the assay on Proteus C889 (setting [2]) and 4 µg/mL in the assay with Staph Russell (setting [2]).
